A short description of this test: Inhibition of IFNalpha in human whole blood assessed as reduction in IFNalpha-induced STAT phosphorylation by fluorescence assay. In kind it is tissue-based.

A word on the IC50: it is the concentration that inhibits the measured activity by half.

Turning to `COC(=O)Nc1cc(Nc2cccc(-c3noc(CN4CCCCS4(=O)=O)n3)c2OC)c(C(N)=O)nn1`, the IC50 was 30 nM.
As to `[2H]C([2H])([2H])NC(=O)c1nnc(NC(=O)NCC#C)cc1Nc1cccc(-c2ncn(C)n2)c1OC`, the IC50 stood at 60 nM.
With `[2H]C([2H])([2H])NC(=O)c1nnc(NC(=O)NCC)cc1Nc1cccc(-c2ncn(C)n2)c1OC` the figure was 20 nM.
Consider `[2H]C([2H])([2H])NC(=O)c1nnc(NC(=O)OC)cc1Nc1cccc(-c2noc(CN3CCCCS3(=O)=O)n2)c1OC`, for which the IC50 worked out at 60 nM.
On to `[2H]C([2H])([2H])NC(=O)c1nnc(NC(=O)NCC=C)cc1Nc1cccc(-c2ncn(C)n2)c1OC`, for which the IC50 was determined as 60 nM.
With `COC(=O)Nc1cc(Nc2cccc(-c3ncn(C)n3)c2OC)c(C(N)=O)nn1` the figure was 70 nM.

The record behind these values is ChEMBL document CHEMBL4725460, “Novel Amide-Substituted Heterocyclic Compounds for Treating Inflammatory and Autoimmune Diseases” (ACS Med Chem Lett, 2020).
